From PMC8072597, “Chromeno[3,4-b]xanthones as First-in-Class AChE and Aβ Aggregation Dual-Inhibitors” (International Journal of Molecular Sciences, 2021)
Like-named read-outs stand apart in the source and are kept apart here.

What was measured:
[1] = molecular target: AChE (Electrophorus electricus—eeAChE) (Electrophorus electricus, UniProt O42275); assay: biochemical; type: biochemical
Protocol: The synthesized compounds were evaluated for their inhibitory activity against AChE (Electrophorus electricus—eeAChE), using an adaptation of Ellman’s method. […] Initially, we performed a screening assay for the synthesized compounds to determine their enzyme inhibition at 20 μΜ as a threshold maximum concentration. […]
The inhibitory activity of the synthesized compounds towards AChE was evaluated spectrophotometrically by a 96-well microplate modified Ellman’s method. The enzyme (AChE) from Electrophorus electricus (eeAChE) stock solution was prepared as 7.4 U/mL in phosphate buffer, at pH 7. The stock solutions for the target compounds (0.1 M) were prepared in DMSO. The assay solution consisted of 0.0005 M 5,5′-dithiobis(2-nitrobenzoic acid) (DTNB), 0.013 U/mL eeAChE, and 0.0025 M acetylthiocholine iodide ATC (substrate for AChE) in 0.1 M phosphate buffer, at pH 7. The reaction mixture was prepared with 100 μL of the enzyme (eeAChE) and 50 μL of the test compound (or DMSO/water, not exceeding 0.2% of DMSO in the wells; i.e., blank samples). After 5 min of the pre-incubation period at 37 °C, 50 μL of acetylthiocholine iodide ATC and 50 μL of 5,5′-dithiobis(2-nitrobenzoic acid) (DTNB) were added to each well, thus initiating the enzymatic reaction. […] All compounds were tested at a screening concentration of 20 μM. The enzyme inhibition was calculated using the […] formula, where S and B are the enzyme activities with and without the test compound, respectively. […] All the reactions were performed in triplicate.

[2] = molecular target: T1, HFIP-treated Aβ1-42 peptides (Homo sapiens, UniProt P05067); assay: Aβ aggregation inhibition, thioflavin T (ThT)-based fluorimetric assay; type: biochemical; settings: 20 μM compound; for inhibition at 20 µM: read-out: Aβ1-42 Aggregation (% Inhib. at 20 μM)
T1 construct: (HFIP)-treated Aβ1-42 peptides
Text: The formation of amyloid aggregates is crucial for the path mechanism of AD. Therefore, we also decided to check the inhibitory activity of the synthesized compounds against the Aβ aggregation. To do so, we conducted a thioflavin T (ThT)-based fluorimetric assay to evaluate their ability to inhibit β-amyloid aggregation in vitro, using 1,1,1,3,3,3,-hexafluoro-2-propanol (HFIP)-treated Aβ1-42 peptides. This assay is based on the interaction between benzothiazole dye (ThT) and cross β-sheet quaternary structure of the amyloid protein. The intensity of fluorescence is weak when the dye is free and increases when the dye binds to β-sheet structures. Cumulative evidence has been shown that aromatic/hydrophobic areas and hydrogen bonding components (such as hydroxy or methoxy groups) along flat extended structures in small-molecule inhibitors as in chromeno[3,4-b]xanthones 4a-i, are important structural features for Aβ aggregation inhibitors. […] The ThT fluorescence data was recorded over 24 h and the obtained results were then plotted against time, as illustrated in Figure 5. Phenol red was used as the reference inhibitor for in vitro Aβ aggregation.
The inhibition of Aβ1-42 aggregation was determined through a ThT-based fluorimetric assay. Initially, the Aβ-peptides (1 mg) were pre-treated with 1,1,1,3,3,3,-hexafluoro-2-propanol (HFIP), kept at room temperature overnight, aliquoted, and dried under vacuum. The Aβ-peptides stock solutions (111 μM) were then prepared in ammonium hydroxide 0.1% (NH4OH) prior to the fluorescence assay. The stock solutions of all tested compounds (400 μM) were prepared in DMSO, while the stock solution of ThT (400 μM) was prepared in distilled water (1 mL). The Aβ aggregation was monitored using a standard 96-well plates, in the Synergy multi-mode reader (BioTek) and setting the excitation and emission wavelengths at 440 and 485 nm, respectively. Samples were prepared by diluting the stock solutions in PBS pH 7.4 to a final Aβ peptides concentration of 10 μM, 20 μM of ThT and 20 μM of the test compound (maximum final DMSO content: 5% v/v), with a final volume of 100 μL. The assays were performed at room temperature. The fluorescence data was recorded over 24 h with 5 s shaking (360 cpm) prior to each reading and then plotted against the time, using a nonlinear regression. Phenol red was used as the reference compound. Each condition was performed in triplicate, and values were averaged. The estimation of the inhibitory potency (%) was carried out by comparing fluorescence values at the plateau.

[3] = Table 1, mean ± SEM, n = 3, each in triplicate, pH 7, 37 °C, read-out: eeAChE [IC50 (μM)]
[4] = Table 3 (dual-target summary), mean ± SEM, n = 3, read-out: eeAChE (IC50 [μM])
[5] = Table 2, 10 μM Aβ, fluorescence at plateau over 24 h, <10 = no inhibition observed

T1 sequence (P05067 672-713): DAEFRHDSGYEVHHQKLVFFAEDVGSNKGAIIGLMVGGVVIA
Sequence of AChE (Electrophorus electricus—eeAChE) (O42275 24-633): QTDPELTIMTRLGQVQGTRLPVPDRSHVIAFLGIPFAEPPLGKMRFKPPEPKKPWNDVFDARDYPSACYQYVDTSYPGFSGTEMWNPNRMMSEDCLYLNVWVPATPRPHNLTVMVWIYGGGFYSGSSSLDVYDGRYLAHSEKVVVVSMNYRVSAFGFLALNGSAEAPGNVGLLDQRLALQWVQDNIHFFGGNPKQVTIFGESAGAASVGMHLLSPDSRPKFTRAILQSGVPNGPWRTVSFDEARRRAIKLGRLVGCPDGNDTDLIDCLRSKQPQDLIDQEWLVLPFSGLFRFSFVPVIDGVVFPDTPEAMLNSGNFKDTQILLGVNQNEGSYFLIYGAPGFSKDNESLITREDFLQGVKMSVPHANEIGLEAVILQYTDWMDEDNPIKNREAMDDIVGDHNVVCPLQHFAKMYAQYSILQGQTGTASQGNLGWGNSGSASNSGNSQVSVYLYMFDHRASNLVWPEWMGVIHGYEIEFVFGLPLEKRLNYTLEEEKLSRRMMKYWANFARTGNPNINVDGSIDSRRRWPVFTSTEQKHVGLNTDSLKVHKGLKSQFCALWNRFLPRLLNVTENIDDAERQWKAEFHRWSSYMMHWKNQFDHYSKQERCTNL

Molecule	IC50 [1, 3]	inhibition at 20 µM [2, 5]	other results
2,9-Dimethoxy-6H,8H-chromeno[3,4-b]xanthen-8-one [Compound 4g]	> 20 µM	–	–
2,11,12-trimethoxy-6H,8H-chromeno[3,4-b]xanthen-8-one [Compound 4h]	> 20 µM	–	–
2,11-Dimethoxy-6H,8H-chromeno[3,4-b]xanthen-8-one [Compound 4f]	4.8 ± 0.1 µM	–	IC50 [1, 4]: 4.8 ± 0.1 µM; Aβ1-42 Aggregation (% Inhib. at 20 μM) [2, 5]: 52%; Aβ1-42 Aggregation (% Inhib. at 20 μM) ([2]; Table 3 (dual-target summary)): 52%
2-Methoxy-6H,8H-chromeno[3,4-b]xanthen-8-one [Compound 4e]	6.9 ± 0.3 µM	–	IC50 [1, 4]: 6.9 ± 0.3 µM; Aβ1-42 Aggregation (% Inhib. at 20 μM) [2, 5]: 61%; Aβ1-42 Aggregation (% Inhib. at 20 μM) ([2]; Table 3 (dual-target summary)): 61%
C#CCOc1ccccc1/C=C/c1cc(=O)c2ccccc2o1 [Compound 3a, (E)-2-[2-(prop-2-yn-1-yloxy)styryl]-4H-chromen-4-one]	–	< 10%	IC50 [1]: 9.5 ± 0.3 µM
C#CCOc1ccccc1/C=C/c1cc(=O)c2ccc(OC)cc2o1 [Compound 3b, (E)-7-methoxy-2-[2-(prop-2-yn-1-yloxy)styryl]-4H-chromen-4-one]	> 20 µM	< 10%	–
C#CCOc1ccccc1/C=C/c1cc(=O)c2c(OC)cccc2o1 [Compound 3c, (E)-5-methoxy-2-[2-(prop-2-yn-1-yloxy)styryl]-4H-chromen-4-one]	> 20 µM	–	–
C#CCOc1ccccc1/C=C/c1cc(=O)c2ccc(OC)c(OC)c2o1 [Compound 3d, (E)-7,8-dimethoxy-2-[2-(prop-2-yn-1-yloxy)styryl]-4H-chromen-4-one]	–	< 10%	IC50 [1]: 2.4 ± 0.1 µM
C#CCOc1cc(OC)ccc1/C=C/c1cc(=O)c2ccccc2o1 [Compound 3e, (E)-2-[4-methoxy-2-(prop-2-yn-1-yloxy)styryl]-4H-chromen-4-one]	> 20 µM	–	–
C#CCOc1cc(OC)ccc1/C=C/c1cc(=O)c2ccc(OC)cc2o1 [Compound 3f, (E)-7-methoxy-2-[4-methoxy-2-(prop-2-yn-1-yloxy)styryl]-4H-chromen-4-one]	> 20 µM	48%	–
C#CCOc1ccc(Br)cc1/C=C/c1cc(=O)c2ccccc2o1 [Compound 3i]	> 20 µM	–	–
O=c1c2ccccc2oc2cc3c(cc12)COc1ccccc1-3 [Compound 4a, 6H,8H-Chromeno[3,4-b]xanthen-8-one]	–	< 10%	IC50 [1]: 2.1 ± 0.2 µM
COc1ccc2c(=O)c3cc4c(cc3oc2c1)-c1ccccc1OC4 [Compound 4b]	–	70%	IC50 [1, 4]: 3.9 ± 0.1 µM; inhibition at 20 µM ([2]; Table 3 (dual-target summary)): 66 to 70%
COc1cccc2oc3cc4c(cc3c(=O)c12)COc1ccccc1-4 [Compound 4c, 9-Methoxy-6H,8H-chromeno[3,4-b]xanthen-8-one]	> 20 µM	–	–
COc1ccc2c(=O)c3cc4c(cc3oc2c1OC)-c1ccccc1OC4 [Compound 4d, 11,12-Dimethoxy-6H,8H-chromeno[3,4-b]xanthen-8-one]	> 20 µM	–	–
O=c1c2ccccc2oc2cc3c(cc12)COc1ccc(Br)cc1-3 [Compound 4i, 2-bromo-6H,8H-chromeno[3,4-b]xanthen-8-one]	> 20 µM	–	–
N#CCOc1ccccc1/C=C/c1cc(=O)c2ccccc2o1 [Compound 6, (E)-2-{2-[2-(4-oxo-4H-chromen-2-yl)vinyl]phenoxy}acetonitrile]	> 20 µM	–	–
C#CCN(CC#C)c1ccccc1/C=C/c1cc(=O)c2ccccc2o1 [Compound 8, (E)-2-{2-[di(prop-2-yn-1-yl)amino]styryl}-4H-chromen-4-one]	–	18%	IC50 [1, 4]: 8.7 ± 0.2 µM; inhibition at 20 µM ([2]; Table 3 (dual-target summary)): 18%
Cc1ccc(C#CCOc2ccccc2/C=C/c2cc(=O)c3ccccc3o2)cc1 [Compound 10, (E)-2-(2-{[3-(4-methylphenyl)prop-2-yn-1-yl]oxy}styryl)-4H-chromen-4-one]	–	66%	IC50 [1, 4]: 2.9 ± 0.1 µM; inhibition at 20 µM ([2]; Table 3 (dual-target summary)): 66 to 70%
O=S1(=O)OC(c2ccc(O)cc2)(c2ccc(O)cc2)c2ccccc21 [Phenol Red, Phenol red, reference compound]	–	20%	–
(E)-7,8-dimethoxy-2-[4-methoxy-2-(prop-2-yn-1-yloxy)styryl]chroman-4-one [Compound 3h]	> 20 µM	–	–
(E)-8-methoxy-3-[4-methoxy-2-(prop-2-yn-1-yloxy]styryl)naphthalen-1(4H)-one [Compound 3g]	> 20 µM	–	–
